Measurements as given in ChEMBL document CHEMBL3992489, “Potentiation of the Fosmidomycin analogue FR 900098 with substituted 2-oxazolines against Francisella novicida” (2016).
Calls of active or inactive are those of the source. The calls are words filed in the database; no cut-off is given here.

Experiments:
[1] = Antibacterial activity against Francisella novicida U112 after 48 hrs; type: functional, Francisella tularensis subsp. novicida U112; conditions: Francisella tularensis
[2] = Potentiation of FR900098-induced antibacterial activity against Francisella novicida U112 assessed as FR900098 MIC after 48 hrs; type: functional, Francisella tularensis subsp. novicida U112; conditions: Francisella tularensis
[3] = Potentiation of FR900098-induced antibacterial activity against Francisella novicida U112 assessed as fold reduction in FR900098 MIC after 48 hrs; type: functional, Francisella tularensis subsp. novicida U112
[4] = Antibacterial activity against Francisella philomiragia ATCC 25015 after 48 hrs; type: functional, Francisella philomiragia subsp. philomiragia ATCC 25015; conditions: ATCC 25015, 48 h
[5] = Potentiation of FR900098-induced antibacterial activity against Francisella philomiragia ATCC 25015 assessed as fold reduction in FR900098 MIC after 48 hrs; type: functional, Francisella philomiragia subsp. philomiragia ATCC 25015
[6] = Potentiation of FR900098-induced antibacterial activity against Francisella novicida U112 assessed as fold reduction in FR900098 MIC at 40 uM after 48 hrs; type: functional, Francisella tularensis subsp. novicida U112
[7] = Potentiation of FR900098-induced antibacterial activity against Francisella novicida U112 assessed as FR900098 MIC at 40 uM after 48 hrs; type: functional, Francisella tularensis subsp. novicida U112; conditions: Francisella tularensis
[8] = system: Francisella tularensis subsp. novicida U112; assay: Bactericidal activity against Francisella novicida U112 at 25% antibacterial MIC up to 24 hrs by time kill curve assay; type: functional
[9] = system: Francisella tularensis subsp. novicida U112; assay: Potentiation of FR900098-induced antibacterial activity against Francisella novicida U112 assessed as reduction in FR900098 MIC at <30 uM after 48 hrs; type: functional

Row | SMILES | MIC [1] | MIC [2] [µg/mL] | further results
1 | Brc1cccc(C2=NCCO2)c1 | > 200 µM | 16 | 
2 | CCCCCCc1ccc(-c2ccncc2)cc1 | 100 µM | 0.5 | 
3 | CCCCCCc1ccc(C2=NCCCO2)cc1 | 50 µM | 4 | fold change (FC) [3]: 4
4 | C(=C\c1ccccc1)/C1=NCCO1 | > 200 µM | 32 | 
5 | CCCCCc1ccc(-c2ncco2)cc1 | 200 µM | 16 | 
6 | CCCCCCCCc1ccc(C2=NCCO2)cc1 | 200 µM | 2 | fold change (FC) [3]: 8
7 | c1ccc(/N=N/c2ccc(C3=NCCO3)cc2)cc1 | > 200 µM | 16 | 
8 | CCCCCCc1ccc(C(=O)OC)cc1 | 200 µM | 8 | 
9 | CCCCCCc1ccc(-c2ncc[nH]2)cc1 | 12.5 µM | 32 | 
10 | c1ccc(C2=NCCO2)cc1 | > 200 µM | 16 | 
11 | CCCCCc1ccc(C2=NCCO2)cc1 | 200 µM | 4 | MIC [4]: 200 µM; fold change (FC) [5]: 4
12 | CCCCCCCCCCc1ccc(C2=NCCO2)cc1 | > 200 µM | 16 | fold change (FC) [3]: 8
13 | Cc1ccc(C2=NCCO2)cc1 | > 200 µM | 16 | 
14 | CCCCCCc1ccc(C2=NCCS2)cc1 | > 200 µM | 2 | fold change (FC) [3]: 8
15 | CCCCCCc1ccc(-c2ncco2)cc1 | > 200 µM | 16 | 
16 | CCCCCCc1ccc(C2=NCCO2)cc1 | > 200 µM |  | fold change (FC) [5]: 32; fold change (FC) [6]: 1000; MIC [7]: 0.0156 µg/mL; Activity [8]: inactive; Activity [9]: inactive
17 | Fc1cc(C2=NCCO2)ccc1C(F)(F)F | > 200 µM | 16 | 

Row | SMILES | MIC [1] | MIC [2] [µg/mL] | further results
18 | c1cc(C2=NCCO2)ccn1 | > 200 µM | 16 | 
19 | CCc1ccc(C2=NCCO2)cc1 | > 200 µM | 16 | 
20 | CCCCCc1ccc(C2=NCCS2)cc1 | 200 µM | 1 | fold change (FC) [3]: 16
21 | CCCc1ccc(C2=NCCO2)cc1 | > 200 µM | 16 | 
22 | CCCCCCc1ccc(-c2c[nH]c(N)n2)cc1 | 12.5 µM | 32 | 
23 | CCCCCCCc1ccc(C2=NCCO2)cc1 | 100 µM | 2 | fold change (FC) [3]: 8
24 | CCCCCCc1ccc(C2=NCCN2)cc1 | 100 µM | 16 | 
25 | CCCCCCCCCc1ccc(C2=NCCO2)cc1 | > 200 µM | 16 | fold change (FC) [3]: 8
26 | CC(=O)N(O)CCCP(=O)(O)O [FR-900098] | 16 µg/mL |  | MIC [4]: 1020 µg/mL
27 | CCCCCCc1ccc(C2OCCO2)cc1 | > 200 µM | 16 | 
28 | CCCCCCc1ccc(-c2cncnc2)cc1 | 100 µM | 4 | fold change (FC) [3]: 32
29 | CCCCc1ccc(C2=NCCO2)cc1 | > 200 µM | 4 | fold change (FC) [3]: 4
30 | CN(C)c1ccc(C2=NCCO2)cc1 | > 200 µM | 16 | 
31 | Fc1cc(C2=NCCO2)cc(F)c1F | > 200 µM | 16 | 
32 | c1ccc2cc(C3=NCCO3)ccc2c1 | 100 µM | 16 | 
33 | CCCCCCc1ccc(C2SCCS2)cc1 | > 200 µM | 16 | 
